The text below walks through data of patent publication US9493411B2 (AbbVie Inc., priority 2013, dated 2016).

pEC50, pKi: −log10 of the molar value. Read-outs that look alike come from different tables or passages of the source.

One test addresses T1, BRD4 (BDI_K57-E168) (Homo sapiens, UniProt O60885).
T1 construct: BD1: amino acids K57-E168; made in house
As to the kind of experiment: TR-FRET bromodomain binding assay, BRD4 first bromodomain. As to conditions: His-tagged BD1, Alexa647-labeled probe 100 nM; Ki calculated from IC50. In short, it runs like this: (§1)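 Probe displacement, TR-FRET: 8 nM His-BRD4 domain, 1 nM Eu-anti-His, Alexa647 BET-inhibitor probe 100 nM (BDI)/30 nM (BDII); 20 mM Na phosphate pH 6.0, 50 mM NaCl, 1 mM DTT; cpd 50 μM-0.85 nM, 3-fold; 1 h RT; Ex 340/[…]; IC50 → Ki.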

The subject of test [1] is breast cancer cell line MX-1. As to the kind of experiment: MX-1 cell line proliferation assay. As to conditions: MX-1 cells, 3-day proliferation assay, Cell Titer Glo, read-out: Cellular proliferation: EC50. It is filed as cell-based. How it is done:
The impact of compounds of the Examples on cancer cell proliferation was determined using the breast cancer cell line MX-1 (ATCC) in a 3-day proliferation assay and the data are reported in Table 1. MX-1 cells were maintained in RPMI 1640 medium (Sigma) supplemented with 10% FBS at 37° C. and an atmosphere of 5% CO2. For compound testing, MX-1 cells were plated in 96-well black bottom plates at a density of 5000 cells/well in 90 μL of culture media and incubated at 37° overnight to allow cell adhesion and spreading. Compound dilution series were prepared in DMSO via a 3-fold serial dilution from 3 mM to 0.1 μM. The DMSO dilution series were then diluted 1:100 in phosphate buffered saline, and 10 μL of the resulted solution were added to the appropriate wells of the MX-1 cell plate. The final compound concentrations in the wells were 3, 1, 0.3, 0.1, 0.03, 0.01, 0.003, 0.001, 0.0003 and 0.0001 μM.
Luminescence readings from the Cell Titer Glo assay were normalized to the DMSO treated cells and analyzed using the GraphPad Prism software with sigmoidal curve fitting to obtain EC50s. The minimum significant ratio (MSR) was determined to evaluate assay reproducibility (Eastwood et al., (2006) J Biomol Screen, 11: 253-261).
In general terms: In ATP-based viability assays light output follows the ATP content of the culture.

In a further test the target is T2, BRD4 (BDII_E352-M457) (Homo sapiens, UniProt O60885).
T2 construct: made in house
Put plainly: TR-FRET bromodomain binding assay, BRD4 second bromodomain. As to conditions: His-tagged BD2, Alexa647-labeled probe 30 nM; Ki calculated from IC50. In short, it runs like this: as §1

For the compound `Cc1[nH]c(-c2ccccc2Oc2cccc(C#N)c2)cc1C(N)=O` [Example 127, 5-[2-(3-cyanophenoxy)phenyl]-2-methyl-1H-pyrrole-3-carboxamide], the pKi on BRD4 (BDI_K57-E168) was 6.63; on BRD4 (BDII_E352-M457) it was 5.98. For the same compound, the pEC50 in test [1] (Homo sapiens, MX1, 72 h) is 5.70.
For `CCCCNc1ccccc1-c1cc(C(N)=O)c(C)[nH]1` [Example 27, 5-[2-(butylamino)phenyl]-2-methyl-1H-pyrrole-3-carboxamide], in that order: 6.42, 5.83 and 5.89.
For the compound `Cc1[nH]c(-c2ccccc2Oc2ccc(N)cc2)cc1C(N)=O` [Example 119, 5-[2-(4-aminophenoxy)phenyl]-2-methyl-1H-pyrrole-3-carboxamide], the negative-log Ki (pKi) at BRD4 (BDI_K57-E168) was 6.60; on BRD4 (BDII_E352-M457) it was 5.96. Moreover, the pEC50 in test [1] (Homo sapiens, MX1, 72 h) was 6.00.
Taken in the same sequence, the figures for `Cc1[nH]c(-c2ccccc2NCc2ccccc2)cc1C(N)=O` [Example 12, 5-[2-(benzylamino)phenyl]-2-methyl-1H-pyrrole-3-carboxamide] were 6.03, 5.41 and 5.46.
For `Cc1[nH]c(-c2ccccc2Oc2cccnc2)cc1C(N)=O` [Example 126, 2-methyl-5-[2-(pyridin-3-yloxy)phenyl]-1H-pyrrole-3-carboxamide], in that order: 7.08, 5.94 and 5.89.
For `Cc1[nH]c(-c2ccccc2NCc2cccc(N)c2)cc1C(N)=O` [Example 53, 5-{2-[(3-aminobenzyl)amino]phenyl}-2-methyl-1H-pyrrole-3-carboxamide], in that order: 6.18, 5.50 and 5.38.
Take `Cc1[nH]c(-c2ccccc2-n2cnc3cc(O)ccc32)cc1C(N)=O` [Example 146, 5-[2-(5-hydroxy-1H-benzimidazol-1-yl)phenyl]-2-methyl-1H-pyrrole-3-carboxamide]: the pKi on BRD4 (BDI_K57-E168) was 7.13; on BRD4 (BDII_E352-M457) it was 6.49. Besides, the pEC50 in test [1] (Homo sapiens, MX1, 72 h) was 5.79.
For `Cc1[nH]c(-c2ccccc2-n2cnc3ccc(O)cc32)cc1C(N)=O` [Example 145, 5-[2-(6-hydroxy-1H-benzimidazol-1-yl)phenyl]-2-methyl-1H-pyrrole-3-carboxamide], in that order: 5.92, 5.41 and less than 5.00.
For `Cc1[nH]c(-c2ccccc2Oc2ccc(Cl)cc2F)cc1C(N)=O` [Example 129, 5-[2-(4-chloro-2-fluorophenoxy)phenyl]-2-methyl-1H-pyrrole-3-carboxamide], in that order: 6.55, 5.65 and 5.65.
For `Cc1ccc(-c2cc(C(N)=O)c(C)[nH]2)c(C)c1` [Example 90, 5-(2,4-dimethylphenyl)-2-methyl-1H-pyrrole-3-carboxamide], in that order: 5.60, 5.29 and 5.20.
With `Cc1[nH]c(-c2ccccc2NCc2ccc3[nH]ccc3c2)cc1C(N)=O` [Example 56, 5-{2-[(1H-indol-5-ylmethyl)amino]phenyl}-2-methyl-1H-pyrrole-3-carboxamide], the results for the pKi at BRD4 (BDI_K57-E168) and at BRD4 (BDII_E352-M457) were 5.79 and 5.57, respectively. In addition, the pEC50 in test [1] (Homo sapiens, MX1, 72 h) was less than 5.00.
For `Cc1[nH]c(-c2ccccc2Oc2ccc(Cc3ccccc3)cc2)cc1C(N)=O` [Example 121, 5-[2-(4-benzylphenoxy)phenyl]-2-methyl-1H-pyrrole-3-carboxamide], in that order: 6.11, 4.99 and less than 5.00.
For `COC/C=C/c1ccc(-c2cc(C(N)=O)c(C)[nH]2)cc1` [Example 107, 5-{4-[(1E)-3-methoxyprop-1-en-1-yl]phenyl}-2-methyl-1H-pyrrole-3-carboxamide], in that order: 5.40, 5.70 and 5.07.
Taken in the same sequence, the figures for `Cc1[nH]c(-c2ccccc2NS(=O)(=O)C2CCCC2)cc1C(N)=O` [Example 87, 5-{2-[(cyclopentylsulfonyl)amino]phenyl}-2-methyl-1H-pyrrole-3-carboxamide] were 6.44, 6.33 and less than 5.52.
On to `Cc1[nH]c(-c2ccccc2Oc2ccc3[nH]ccc3c2)cc1C(N)=O` [Example 130, 5-[2-(1H-indol-5-yloxy)phenyl]-2-methyl-1H-pyrrole-3-carboxamide], for which the values for the pKi at BRD4 (BDI_K57-E168) and at BRD4 (BDII_E352-M457) were 6.33 and 5.91, respectively. The pEC50 in test [1] (Homo sapiens, MX1, 72 h) is 5.75.
As to `Cc1[nH]c(-c2ccccc2NCC2CCOC2)cc1C(N)=O` (single isomer, unassigned) [Example 19], the pKi at BRD4 (BDI_K57-E168) is 6.88; at BRD4 (BDII_E352-M457) it was 5.74. The pEC50 in test [1] is 5.63.
Turning to `Cc1[nH]c(-c2ccc(-c3ccc(CN4CCN(C)CC4)cc3)cc2)cc1C(N)=O` [Example 97, 2-methyl-5-{4′-[(4-methylpiperazin-1-yl)methyl]biphenyl-4-yl}-1H-pyrrole-3-carboxamide], the pKi on BRD4 (BDI_K57-E168) is 5.85; at BRD4 (BDII_E352-M457), 5.73. Also, the pEC50 in test [1] (Homo sapiens, MX1, 72 h) was 4.82.
Taken in the same sequence, the figures for `Cc1[nH]c(-c2ccccc2Oc2ccc(-n3ccnc3)cc2)cc1C(N)=O` [Example 135, 5-{2-[4-(1H-imidazol-1-yl)phenoxy]phenyl}-2-methyl-1H-pyrrole-3-carboxamide] were 6.45, 5.73 and less than 5.00.
In the case of `Cc1[nH]c(-c2cc(S(N)(=O)=O)ccc2Oc2ccc(F)cc2F)cc1C(N)=O` [Example 168, 5-[2-(2,4-difluorophenoxy)-5-sulfamoylphenyl]-2-methyl-1H-pyrrole-3-carboxamide], the values for the pKi on BRD4 (BDI_K57-E168) and at BRD4 (BDII_E352-M457) were 6.97 and 6.12, respectively. Also, in test [1] (Homo sapiens, MX1, 72 h), the pEC50 was less than 5.52.
Taken in the same sequence, the figures for `COc1cc(-c2cc(C(N)=O)c(C)[nH]2)cc(OC)c1OC` [Example 149, 2-methyl-5-(3,4,5-trimethoxyphenyl)-1H-pyrrole-3-carboxamide] were 6.05, 5.41 and 5.63.
For `Cc1[nH]c(-c2ccccc2N(Cc2ccc(OCCCN(C)C)cc2)CC2CCCC2)cc1C(N)=O` [Example 57, 5-{2-[(cyclopentylmethyl){4-[3-(dimethylamino)propoxy]benzyl}amino]phenyl}-2-methyl-1H-pyrrole-3-carboxamide], the values for the pKi at BRD4 (BDI_K57-E168) and at BRD4 (BDII_E352-M457) were 6.41 and 5.72, respectively. Further, the pEC50 in test [1] (Homo sapiens, MX1, 72 h) is less than 5.52.
For `COc1ccc(Oc2ccccc2-c2cc(C(N)=O)c(C)[nH]2)cc1` [Example 137, 5-[2-(4-methoxyphenoxy)phenyl]-2-methyl-1H-pyrrole-3-carboxamide], the negative logarithm of the Ki (pKi) at BRD4 (BDI_K57-E168) is 6.66; at BRD4 (BDII_E352-M457) it was 5.99. The pEC50 in test [1] (Homo sapiens, MX1, 72 h) was 5.31.
For `Cc1[nH]c(-c2ccccc2NCC2CCCC2)cc1C(N)=O` [Example 14, 5-{2-[(cyclopentylmethyl)amino]phenyl}-2-methyl-1H-pyrrole-3-carboxamide], in that order: 6.68, 6.14 and 6.33.
Taken in the same sequence, the figures for `Cc1[nH]c(-c2ccccc2NC2CCOCC2)cc1C(N)=O` [Example 70, 2-methyl-5-[2-(tetrahydro-2H-pyran-4-ylamino)phenyl]-1H-pyrrole-3-carboxamide] were 6.36, 5.37 and less than 5.52.

The pKi is −log10 of the Ki, conventionally taken in molar units.
